Laboratory results as given in patent US10174078B2, “Keratan sulfate specific transporter molecules” (PHI PHARMA SA, priority 2014, dated 2019).
Square brackets hold non-standard residues; d marks the D form. Ends that are not written are not given here. Peptide text beside a SMILES is read from it. 3'AdT = not defined here

What was measured:
[1] = estimation of in vivo stability: incubation of peptides with fetal calf serum; format: in vitro ADME; conditions: 37° C.; for degradation in fetal calf serum: 6 hr; for remaining at 6 h: fetal calf serum, read-out: stable at 6 hours
Method: In vivo stability was estimated by mixing peptides with fetal calf serum and incubating at 37° C. for 6 hr. Samples were tested at both 0 and 6 hours.

keratan-sulfate (KS) = experiment: modified ELISA: binding of peptides to plate-coated keratan-sulfate; conditions: plates coated with 1 mg/ml KS, 1 mg/ml peptide, 1 hour at room temperature
Method: The binding of the seven-mer peptides of the invention to KS as predicted by the models, in particular, as compared to the binding to other proteoglycans was tested using a modified ELISA protocol. ELISA plates were coated overnight with 1 mg/ml of heparin sulfate (HS), chondroitin-4-sulfate (C4S), chondroitin-6-sulfate (C6S) or keratan-sulfate (KS) in PBS. The wells were then washed with PBS and incubated for 1 hour at room temperature with 1 mg/ml of an exemplary peptide of the invention having the sequence RYKvRIK (“RYK-KS”; SEQ ID NO:7) or a standard TAT peptide. The plates were then thoroughly washed with PBS and subsequently photographed with a LUMASCOPE™ luminescent microscope. Images were then quantified using the ImageJ software (FIG. 4).
The same modified ELISA protocol was used to examine the impact of modifying the freely-selectable positions 2, 4 and 6 on the specific binding to KS.
The impact of sequence variation on specific binding was also investigated with select peptides using the above described modified ELISA.

MDCK cells = experiment: viability of MDCK cultures by trypan blue exclusion after 96 hour incubation with BAM-conjugate; format: cell-based; conditions: 0.5 μM to 10 μM tested
Method: The activity of peptides of the invention as targeting moieties was tested in vitro in preliminary studies using cells lines expressing KS. The nucleoside analog 3′ amino deoxythymidine (3′AdT) was conjugated to the amino-terminus of the peptide “RYRI” (RYKvRlK (SEQ ID NO:7)) using a single D-Glu residue (3′AdT-e-RYRI).
Confluent cultures of MDCK were passaged at 1/20 dilution and exponentionally growing cells were incubated for 96 hours with concentrations of the nucleoside analog conjugates ranging from 0.5 μM to 10 μM. Viability was subsequently assessed using trypan blue exclusion.

RPKHRPK [RPKHRPK]
degradation in fetal calf serum [1]: completely degraded

RYKvFIKPRh (RYK[dV]FIKPR[dH])
binding to KS (keratan-sulfate (KS)): eliminated binding activity

CC[C@H](C)[C@H](NC(=O)[C@H](CCCNC(=N)N)NC(=O)[C@H](NC(=O)[C@H](CCCCN)NC(=O)[C@H](Cc1ccc(O)cc1)NC(=O)[C@@H](N)CCCNC(=N)N)C(C)C)C(=O)N[C@@H](CCCCN)C(=O)O [RYK-KS, RYKvRIK] (HELM PEPTIDE1{R.Y.K.[dV].R.I.K}$$$$V2.0; N-terminus and C-terminus assumed)
degradation in fetal calf serum [1]: no degradation | remaining at 6 h [1]: 100%

D-linked conjugate: 3′AdT conjugated to the amino-terminus of the peptide RYRI (RYKvRIK) by a single D-Glu residue ({3'AdT}-[dE]RYK[dV]RIK; reading uncertain; also: printed as RYKvRIK)
concentrations with substantial effects on viability (MDCK cells): ≥ 0.5 µM

RKKRRQRR (Artificial TAT control peptide) [standard TAT peptide]
binding to KS (keratan-sulfate (KS)): increases in binding that were likely non-selective

RRRRRRRRR [pure arginine 9-mer]
binding to KS (keratan-sulfate (KS)): increases in binding that were likely non-selective

RYKvRPKYF (RYK[dV]RPKYF) [control peptide with proline at position 6]
binding to KS (keratan-sulfate (KS)): eliminated binding activity

CC[C@H](C)[C@H](N)C(=O)N[C@@H](CCCNC(=N)N)C(=O)N[C@H](C(=O)N[C@H](CCCCN)C(=O)N[C@H](C(=O)N[C@H](CCCNC(=N)N)C(=O)N[C@H](C(=O)N[C@@H](CCCCN)C(=O)O)[C@@H](C)CC)[C@@H](C)CC)[C@@H](C)CC [IRIkIrIK] (HELM PEPTIDE1{I.R.I.[dK].I.[dR].I.K}$$$$V2.0; N-terminus and C-terminus assumed)
degradation in fetal calf serum [1]: no degradation | remaining at 6 h [1]: 100%
